Values of other authors in paper PMC4312132, “Phenylalanine in the Pore of the Erwinia Ligand-Gated Ion Channel Modulates Picrotoxinin Potency but Not Receptor Function” (Biochemistry, 2014).

Legend:
[1] = tested on: ELIC with mutations of residues 2′ and 6′; conditions: mutations of residues 2′ and 6′ in ELIC; cited from earlier work
F16′A mutant ELIC = conditions: F16′A mutant vs wild type; as previously shown; cited from earlier work

| SMILES | inhibition of ELIC [1] | fold change in cysteamine EC50 (F16′A mutant ELIC) [fold] |
| --- | --- | --- |
| O=S1OC[C@@H]2[C@H](CO1)[C@@]1(Cl)C(Cl)=C(Cl)[C@]2(Cl)C1(Cl)Cl (stereo partly drawn) [α-endosufan] | abolish inhibition | – |
| NCCS [cysteamine] | – | < 10 |
